As a reminder, the IC50 is the concentration that inhibits the measured activity by half.

The subject of assay [1] is H3122 cells. The experiment in a line: Long-term cell proliferation (colony formation) assay in H3122. The format is cell-based. As to conditions: for effect of MED12 knockdown on response to chemotherapy drugs, H3122: shMED12 #4 and #5, 2 μM cisplatin or 2.5 μM 5-FU, 18 days; for effect of MED12 knockdown on response to ALK inhibitors, H3122: shMED12 #1-3, 300 nM crizotinib or 2.5 nM NVP-TAE684; for effect of recombinant TGFbeta treatment on drug response, H3122: TGFbeta-dosage dependent, crizotinib, cisplatin 2 μM. On the procedure: (§1) H3122, PC9, H3255, SK-CO-1 and SW1417 cells were cultured in RPMI with 8% heat inactivated fetal bovine serum, penicillin and streptomycin at 5% CO2. HEK 293T, Phoenix and A375, SK-MEL-28 and Huh-7 cells were cultured in DMEM with 8% heat-inactivated fetal bovine serum, penicillin and streptomycin at 5% CO2. Subclones of each cell line expressing the murine ecotropic receptor were generated and used for all experiments shown. Phoenix cells were used as producers of retroviral supernatants as described at www.stanford.edu/group/nolan/retroviral_systems/phx.html. HEK 293T cells were used as producers of lentiviral supernatants as described at www.broadinstitute.org/rnai/public/resources/protocols. The calcium phosphate method was used for the transfection of Phoenix and 293T cells. Infected cells were selected for successful retroviral integration using 2 μg/ml of puromycin.
(§2) For long-term cell proliferation assays, cells were seeded into 6-well plates (2-5×10E4 cells/well) and cultured both in the absence and presence of drugs as indicated. More details are described (Huang et al., 2009. Cancer Cell 15: 328-340). All knockdown and overexpression experiments were done by retroviral or lentiviral infection. All relevant assays were performed independently at least three times.

Assay [2] relates to SK-CO-1 colorectal cancer cells (KRASV12). Nature of the assay: Long-term cell proliferation (colony formation) assay in SK-CO-1. The format is cell-based. On the procedure: as §1, §2
Another assay addresses TGFbeta receptor Type II (Homo sapiens, UniProt P37173). As to conditions: cited from earlier work.
Assay [3] concerns H3122 cells. As to conditions: parental H3122, EML4-ALK translocation; McDermott et al., 2008; cited from earlier work.
A further assay concerns PC9 cells. The experiment in a line: Long-term cell proliferation (colony formation) assay in PC9. The class given is cell-based. As to conditions: for effect of recombinant TGFbeta treatment on drug response, PC9: TGFbeta-dosage dependent, gefitinib 50 nM, cisplatin 0.7 μM. How it is done: (§3) H3122, PC9, H3255, SK-CO-1 and SW1417 cells were cultured in RPMI with 8% heat inactivated fetal bovine serum, penicillin and streptomycin at 5% CO2. […] Subclones of each cell line expressing the murine ecotropic receptor were generated and used for all experiments shown. Phoenix cells were used as producers of retroviral supernatants as described at www.stanford.edu/group/nolan/retroviral_systems/phx.html. […] Infected cells were selected for successful retroviral integration using 2 μg/ml of puromycin.
(§4) For long-term cell proliferation assays, cells were seeded into 6-well plates (2-5×10E4 cells/well) and cultured both in the absence and presence of drugs as indicated. […] All knockdown and overexpression experiments were done by retroviral or lentiviral infection. All relevant assays were performed independently at least three times.

Another assay concerns H3255 cells. The class given is cell-based. How it is done:
as §3, §4

The next assay has as its system Huh-7 HCC cells. Nature of the assay: Long-term cell proliferation (colony formation) assay in Huh-7. The class given is cell-based. On the procedure:
as §1, §2

Assay [4] has as its system A375 melanoma cells (BRAFV600E). The experiment in a line: Long-term cell proliferation (colony formation) assay in A375. As to conditions: without targeted cancer drugs. The class given is cell-based. On the procedure:
as §3, §4

The subject of assay [5] is MEK/ERK activation in H3122 cells. The experiment in a line: Western blotting of MEK/ERK activation in H3122. The class given is cell-based. As to conditions: data not shown. The text has this: (§5) Antibody against MED12 (A300-774A) and MED13 (A301-278A) was from Bethyl Laboratories; antibodies against Vimentin (RV202) and N-cadherin (ab18203) were from Abcam; antibody against p-SMAD2 (Ser465/467, #3101), SMAD2 (L16D3, #3103), pMEK1/2 (S217/221, #9121) and MEK1/2 (L38C12, #4694) were from Cell Signaling; anti-Flag M2 (F1804) was from Sigma; antibodies against HSP90 (H-114), p-ERK (E-4), ERK1 (C-16), ERK2 (C-14), CDK8 (D-9), Lamin A/C (636), SP1 (PEP2), alpha-TUBULIN (H-183), TGFbeta R2 (C-16), CDK8 (D9) and normal rabbit IgG control were from Santa Cruz Biotechnology; A mixture of ERK1 and ERK2 antibodies was used for detection of total ERK; 12CA5 hybridoma supernatant was also used to detect HA tagged-TGFbeta R2.
In general terms: Immunoblotting shows a protein as a band on a membrane.

Assay [6] concerns MEK/ERK activation in PC9 cells. Nature of the assay: Western blotting of MEK/ERK activation in PC9. The class given is cell-based.
Source text: as §5

Assay [7] relates to MEK/ERK activation in H3255 cells. Nature of the assay: Western blotting of MEK/ERK activation in H3255. The class given is cell-based.
Source text: as §5

For assay [8], the system named is Vimentin, N-cadherin and p-ERK in Huh7 cells. The experiment in a line: Western blotting of mesenchymal markers and p-ERK in Huh7. The class given is cell-based. As to conditions: 50 picoM of TGFbeta for 6 days.
Source text: as §5

Chain of TGFbeta receptor Type II (P37173 23-567, species assumed): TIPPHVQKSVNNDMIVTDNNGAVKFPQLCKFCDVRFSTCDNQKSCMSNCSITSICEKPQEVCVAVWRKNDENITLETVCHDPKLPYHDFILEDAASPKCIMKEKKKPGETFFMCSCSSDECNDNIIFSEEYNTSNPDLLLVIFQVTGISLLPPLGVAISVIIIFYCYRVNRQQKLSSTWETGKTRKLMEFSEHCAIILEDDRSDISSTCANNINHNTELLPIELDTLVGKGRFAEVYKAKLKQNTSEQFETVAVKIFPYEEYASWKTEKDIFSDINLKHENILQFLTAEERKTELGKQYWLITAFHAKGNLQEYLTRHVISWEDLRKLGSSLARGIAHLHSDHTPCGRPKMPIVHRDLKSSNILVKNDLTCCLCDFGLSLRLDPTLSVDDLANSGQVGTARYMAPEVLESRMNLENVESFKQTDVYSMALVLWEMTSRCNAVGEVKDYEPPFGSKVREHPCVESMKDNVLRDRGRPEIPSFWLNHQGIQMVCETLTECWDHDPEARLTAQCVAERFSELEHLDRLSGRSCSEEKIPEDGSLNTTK

As to `O=c1[nH]cc(F)c(=O)[nH]1` [5-FU, 5-Fluorouracil], the “effect of MED12 knockdown on response to chemotherapy drugs, H3122” value in the assay with H3122 cells [1] is reported as “confers resistance”.
For `Cn1cnc2c(F)c(Nc3ccc(Br)cc3Cl)c(C(=O)NOCCO)cc21` [AZD6244, seluteminib], the “effect of MED12 knockdown on response to MEK inhibitor, SK-CO-1” value in [2] (0.5 μM AZD6244, 28 days) is given as “conferred resistance”. In addition, the “effect of recombinant TGFbeta treatment on drug response, SK-CO-1” value in [2] (TGFbeta-dosage dependent, AZD6244 0.5 μM) is recorded as “leads to resistance”. The “sensitivity of SK-CO-1 cells” value in [2] (parental cells) is “highly sensitive”.
As to `Cc1cccc(-c2nn3c(c2-c2ccnc4ccc(C(N)=O)cc24)CCC3)n1` [LY2157299, 4-(2-(6-methylpyridin-2-yl)-5,6-dihydro-4H-pyrrolo[1,2-b]pyrazol-3-yl)quinoline-6-carboxamide], the “proliferation of control and MED12KD H3122 cells, monotherapy” value with H3122 cells [1] (1 μM LY2157299 alone, 14 days) is recorded as “little effect”. In addition, on TGFbeta receptor Type II, the IC50 is 2 nM.
As for `COc1cc(N2CCC(N3CCN(C)CC3)CC2)ccc1Nc1ncc(Cl)c(Nc2ccccc2S(=O)(=O)C(C)C)n1` [NVP-TAE684], the “effect of MED12 knockdown on response to ALK inhibitors, H3122” value in the assay on H3122 cells [1] (28 days) was “conferred resistance”. Moreover, in the assay on H3122 cells [3], the “sensitivity of H3122 cells to selective ALK inhibitors” value was “exquisitely sensitive”.
Regarding `N.N.[Cl][Pt][Cl]` [cisplatin], in the assay on H3122 cells [1], the “effect of recombinant TGFbeta treatment on drug response, H3122” value is listed as “leads to resistance” and the “effect of MED12 knockdown on response to chemotherapy drugs, H3122” value is reported as “confers resistance”. Moreover, the “effect of recombinant TGFbeta treatment on drug response, PC9” value with PC9 cells was “leads to resistance”. The “effect of MED12 knockdown on response to cisplatin, PC9” value in the assay on PC9 cells (shMED12 #4 and #5, 0.37 or 1.1 μM cisplatin, 21 days) is given as “confers resistance”.
Regarding `C[C@@H](Oc1cc(-c2cnn(C3CCNCC3)c2)cnc1N)c1c(Cl)ccc(F)c1Cl` [crizotinib], the “effect of recombinant TGFbeta treatment on drug response, H3122” value in the assay on H3122 cells [1] was “leads to resistance”. Moreover, the “proliferation of control H3122 cells” value in the assay with H3122 cells [1] (pRS control cells, 300 nM crizotinib alone, 28 days) was “potently inhibited the proliferation”. In the assay with H3122 cells [1] (28 days), the “effect of MED12 knockdown on response to ALK inhibitors, H3122” value is recorded as “conferred resistance”. Further, in the assay with H3122 cells [3], the “sensitivity of H3122 cells to selective ALK inhibitors” value is recorded as “exquisitely sensitive”.
With `C#Cc1cccc(Nc2ncnc3cc(OCCOC)c(OCCOC)cc23)c1` [erlotinib], in the assay with PC9 cells, the “effect of MED12 knockdown on response to EGFR inhibitors, PC9” value is “conferred resistance”. In addition, the “effect of MED12 knockdown on response to EGFR inhibitors, H3255” value with H3255 cells was “conferred resistance”.
Take `COc1cc2ncnc(Nc3ccc(F)c(Cl)c3)c2cc1OCCCN1CCOCC1` [gefitinib]: the “effect of recombinant TGFbeta treatment on drug response, PC9” value with PC9 cells was “leads to resistance”.
`CNC(=O)c1cc(Oc2ccc(NC(=O)Nc3ccc(Cl)c(C(F)(F)F)c3)cc2)ccn1` [sorafenib]: the “effect of MED12 knockdown on response to sorafenib, Huh-7” value in the assay with Huh-7 HCC cells (2 μM sorafenib, 21 days) was “became resistant”.
For “recombinant TGFbeta: Recombinant hTGFbeta 1 (240-B/CF) purchased from R&D systems”, in [4], the “proliferation of A375 cells, TGFbeta alone” value is recorded as “growth inhibition”. Further, in the assay on Huh-7 HCC cells (without targeted cancer drugs, data not shown), the “proliferation of Huh-7 cells, TGFbeta alone” value is given as “growth inhibition”. In addition, in [5], the “MEK/ERK activation in H3122 cells” value is recorded as “caused MEK/ERK activation”. In addition, the “MEK/ERK activation in PC9 cells” value in assay [6] is listed as “caused MEK/ERK activation”. Further, the “MEK/ERK activation in H3255 cells” value in [7] is listed as “caused MEK/ERK activation”. In assay [8], the “levels of Vimentin, N-cadherin and p-ERK in Huh7 cells” value was “increased levels of Vimentin, N-cadherin and p-ERK”.

The values above are taken from patent publication US20150275306A1, “METHODS AND MEANS FOR PREDICTING RESISTANCE TO ANTI-CANCER TREATMENT” (Stichting Het Nederlands Kanker Instituut Antoni van …, priority 2012, published 2015).
